In patent US20160108098A1, “THERAPEUTIC PEPTIDES” (GLAXOSMITHKLINE INTELLECTUAL PROPERTY DEVELOPMENT LIMITED, priority 2013, published 2016):

Experiments:
[1] = target: T1, human Neuropeptide Y receptor type 2 (Homo sapiens, UniProt P49146); assay: melanophore assay, potency at the human Neuropeptide Y receptor type 2; format: cell-based; conditions: read-out: hNPY Y2 pEC50 (converted)
T1 construct: expressed in transfected cells; host or cells: melanophores; own knowledge: in the cited Jayawickreme protocol these are Xenopus laevis melanophores transfected with the receptor
T1 sequence (P49146 1-381): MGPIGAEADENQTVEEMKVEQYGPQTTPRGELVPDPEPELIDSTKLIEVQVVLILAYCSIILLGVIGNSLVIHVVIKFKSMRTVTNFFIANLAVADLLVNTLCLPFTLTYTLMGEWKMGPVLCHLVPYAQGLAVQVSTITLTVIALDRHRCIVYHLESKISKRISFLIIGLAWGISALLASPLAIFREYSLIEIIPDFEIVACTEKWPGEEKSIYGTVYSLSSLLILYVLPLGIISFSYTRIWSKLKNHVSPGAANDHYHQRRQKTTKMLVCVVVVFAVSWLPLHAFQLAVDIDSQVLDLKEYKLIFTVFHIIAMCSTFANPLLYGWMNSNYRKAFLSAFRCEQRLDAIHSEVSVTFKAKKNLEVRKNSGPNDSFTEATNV

[2] = cumulative food intake, diet-induced obese mice (Model B), BioDaQ system; format: in vivo; conditions: diet-induced obese C57BL/6 mice, 1 mg/kg subcutaneously, cumulative food intake after 6 h, relative to vehicle controls
Description: Cumulative food intake after 6 h was determined for the PYY analogs in either lean (Model A) or diet-induced obese (DIO) (Model B) C57BL/6 mice in a BioDaQ system for continuous monitoring of food intake (Research Diets Inc., New Brunswick, N.J.). […] Mice were placed singly into the BioDaQ cages and acclimatized for a minimum of 6 days and were allowed ad libitum access to food and water. Approximately 1 hour prior to lights-out, animals were dosed subcutaneously with either vehicle (20 mM Acetate buffer, pH 4.9 or 20% DMSO in water) or analogs dissolved in vehicle (1 mg/kg) (8 animals per group). Once all animals have been dosed, feeder gates were opened providing ad-libitum access to food. Continuous food intake was monitored and collected for 15 hours. […] P-values<0.05 were considered to indicate a significant difference between treatment groups.

[3] = chronic (41 days) efficacy study in diet-induced obese (DIO) Long Evans rats: body weight, body composition, food intake; format: in vivo, Long Evans rat; conditions: for weight loss vs. vehicle: 40 days, subcutaneous osmotic pumps, ED50 doses; for fat mass lost from vehicle control: QMR, day 40 of treatment; for inhibition of cumulative food intake: treatment period, vs. vehicle control
Description: Rats were 17 weeks old at the start of the study. The rats were housed 1 per cage and given ad libitum access to TD.95217 chow and water, maintained on a 12 h light/dark cycle from 5:00 AM to 5:00 PM at 21° C. and 50% relative humidity and allowed to acclimate for at least 7 days prior to baseline measurements. Baseline fat mass and non-fat mass measurements were taken 3 days before the start of peptide infusion and on day 40 of treatment using a QMR instrument (Echo Medical Systems, Houston, Tex.). […] Each rat was implanted with two osmotic pumps subcutaneously in the scapula region containing vehicle or peptide according to their treatment group. Body weight and food intake were measured twice per week beginning three days before the 41-day treatment period. On day 41 of treatment, whole blood was collected by cardiac stick under isoflurane anesthesia. Plasma and serum were then prepared from the whole blood for serum chemistry analysis. All the data are presented as mean±SEM. The data were analyzed in either Prism (GraphPad Software, Inc., La Jolla, Calif.) or Excel using a Student's T-test to compare each group to the appropriate control group. P-values<0.05 were considered to indicate a significant difference between treatment groups.

[4] = chronic (26 days) efficacy study in Zucker Diabetic Fatty (ZDF) rats: glucose, HbA1c; format: in vivo, Zucker Diabetic Fatty (ZDF) rat; conditions: for ΔΔ % HbA1c / ΔΔGlucose: 26 days of treatment, change from baseline and vehicle control; for ΔΔGlucose: ED20 doses
Description: Male ZDF rats were 12 weeks old at the start of the study (Charles River, Inc. Boston, Mass.). […] Baseline fat mass and non-fat mass measurements were taken 3 days before the start of peptide infusion and on day 26 of treatment using a QMR instrument (Echo Medical Systems, Houston, Tex.). […] P-values<0.05 were considered to indicate a significant difference between treatment groups.

EC50 [1] [nM]	Compound	% reduction in food intake, model B [2] [%]	weight loss vs. vehicle [3] [%]	fat mass lost from vehicle control [3] [grams]	ED50 for weight loss ([3]; dose used for infusion) [mg/kg/day]	inhibition of cumulative food intake [3] [%]	ΔΔ % HbA1c [4] [%]	ΔΔGlucose [4]	ΔΔGlucose ([4]; listed as Exendin-4) [mg/dL]	ED20 for HbA1c lowering ([4]; dose used for infusion) [mg/kg/day]
0.251	CC(C)C[C@H](NC(=O)[C@H](CO)NC(=O)[C@H](C)NC(=O)[C@H](Cc1ccc(O)cc1)NC(=O)[C@H](Cc1ccc(O)cc1)NC(=O)[C@H](CCCNC(=N)N)NC(=O)[C@H](CC(N)=O)NC(=O)[C@H](Cc1c[nH]c2ccccc12)NC(=O)[C@H](CCC(=O)O)NC(=O)[C@H](CCC(=O)O)NC(=O)[C@@H]1CCCN1C(=O)[C@H](CO)NC(=O)[C@H](C)NC(=O)[C@H](CC(=O)O)NC(=O)[C@H](CCCCN)NC(=O)CNC(=O)[C@@H]1CCCN1C(=O)[C@H](Cc1c[nH]cn1)NC(=O)[C@H](CCC(=O)O)NC(=O)[C@@H]1CCCN1C(=O)[C@H](CCCCN)NC(=O)[C@@H]1CCCN1)C(=O)N[C@@H](CCCNC(=N)N)C(=O)N[C@@H](CCCCN)C(=O)N[C@@H](Cc1ccc(O)cc1)C(=O)N[C@@H](CC(C)C)C(=O)N[C@@H](CC(N)=O)C(=O)N[C@@H](Cc1c[nH]c2ccccc12)C(=O)N[C@H](C(=O)N[C@H](C(=O)N[C@@H](CCCNC(=N)N)C(=O)N[C@@H](CCC(N)=O)C(=O)N[C@@H](CCCNC(=N)N)C(=O)N[C@@H](Cc1ccc(O)cc1)C(N)=O)[C@@H](C)O)C(C)C [Example 25]	−68								
	exendin-4		−11.3	−55.8	0.15	−20.1	−0.4 ± 0.2	-53.9 mg/dL	-53.9 ± 18.3	0.0055
	PYY(3-36)NH2		−1.3	−10.9		−0.7	0.01 ± 0.4	−33.1 ± 17^ mg/dL		
